According to article PMC9448861 (Frontiers in Pharmacology, 2022):
Read-outs that look alike come from different tables or passages of the source.

How the values were obtained:
[1] = test system: treatment-resistant depression; set-up: method as in Serafini et al., 2014; settings: ref Serafini et al., 2014; cited from earlier work
[2] = Pharmacokinetics of ketamine and its metabolite hydroxynorketamine in mouse serum, hippocampus and frontal cortex (noncompartmental analysis, LC-MS/MS); assay type: in vivo, C57BL/6J mice; settings: for AUC0-∞ / t0.5λz / tmax / Cmax / MRT / k el / CL/F / Vd/F: ketamine 10 mg/kg i.p.; for Kp / Cmax / MRT / k el / CL/F / Vd/F: male, C57BL/6J, mouse, 10 mg/kg; for Kp: intraperitoneal; for Cmax / MRT / k el / CL/F / Vd/F: ip; for Cmax: read-out: Cmax; for MRT: read-out: MRT (converted); for k el: read-out: λz (converted); for Vd/F: read-out: Vz/F
[3] = test system: Zn levels in the Hp and FC; assay: Analysis of zinc (F-AAS) in the Hp and FC; assay type: in vivo, C57BL/6J mice; settings: CRS + ZnD mice; three doses
Experimental: (§1) All the compounds/drugs used in the study were obtained commercially, except for hyperforin (sodium salt), which was received as a gift from Dr. Wilmar Schwabe GmbH and Co (Karlsruhe, Germany). […] The control group received only 0.9% NaCl.
The samples were mineralized before the experiments. Briefly, three independent test portions of 0.5 g each were weighed from each sample and transferred to Teflon vessels. Then, 2 mL of 30% H2O2 and 6 mL of 65% HNO3 (V) were added, and the mixture was subjected to wet mineralization in a closed system in a Magnum II mineralizer (ERTEC). Mineralization was carried out for 75 min with three cycles of magnetron operation, where the first 30 min was at 60% power, next 15 min was at 80% power, and the remaining 30 min was at 100% power. The mineralized solution thus obtained was heated on a hot plate at 120 °C for 60 min to remove the excess reagents. The samples were then quantitatively transferred to 10 mL flasks and used to determine the zinc content via the F–AAS method (adsorption and emission technique). An atomic absorption spectrometer (iCE 3500, Thermo Scientific, UK) was used to measure the Zn content; each sample was analyzed independently thrice, and the obtained results are presented as mean value ± standard error of mean (SEM).

[4] = test system: mice subjected to CRS and CRS + ZnD; assay: Tail suspension test (TST) in mice subjected to CRS or CRS + ZnD; assay type: in vivo, C57BL/6J mice; settings: three doses, 72 h after the last treatment
Experimental: as §1
(§2) One week after acclimation, the mice were subjected to either a zinc-adequate feed (ZnA, 50 mg/kg) or zinc-deficient/low-Zn feed (ZnD, 3 mg/kg). Beginning from the second week, some ZnD mice were additionally subjected to 3 weeks of CRS. At the beginning of the 5th week, the mice were subjected to their appropriate treatment schedules or behavioral tests (see schemes in the figures).
(§3) CRS was performed in accordance with the procedures of [Ding et al. (2016]) with modifications. Mice from the stress groups were restrained in well-ventilated tubes with caps and holes for breathing (in a separate room from the control groups) for 3 h/day over 3 weeks. After each restraint period, the mice were transferred to housing cages. The control mice were housed at 6 mice per cage in an enriched environment and were handled every third day.
The TST was performed as described in a previous work ([Pochwat et al., 2018]). Briefly, each mouse was suspended individually by the tail using adhesive tape (2 cm from the tail tip) affixed to a solid flat surface, and immobility times were measured for 6 min. […]

[5] = test system: mice subjected to CRS and CRS + ZnD; assay: Sucrose preference test (SPT) in mice subjected to CRS or CRS + ZnD; assay type: in vivo, C57BL/6J mice; settings: three doses (ketamine 10 mg/kg, Ro 10 mg/kg, Hyp 2.5 mg/kg + Lan 10 mg/kg), 24 h after the last treatment
Experimental: as §1, §2, §3
Seven days before the tests, the control and stressed mice were singly housed. The tests were carried out as follows. Two bottles (water and 1% sucrose solution) were placed in each cage 63 h before the test. Twenty-four hours later, the bottles were switched from right to left. Fifteen hours before the tests, the animals were deprived of food, water, and sucrose. The tests lasted 2 h, and sucrose preference was calculated as a percentage of the volume of sucrose intake over the total volume of fluid intake (water and sucrose solution). The SPT was performed during the light phase.

[6] = frontal cortex, frontal cortex, CRS + ZnD mice
[7] = frontal cortex, frontal cortex, CRS mice
[8] = frontal cortex, frontal cortex, Control mice
[9] = hippocampus, hippocampus, CRS + ZnD mice
[10] = hippocampus, hippocampus, CRS mice
[11] = hippocampus, hippocampus, Control mice

CNC1(c2ccccc2Cl)CCCCC1=O (centres unmarked) [Ketamine, ketamine]
estimated efficacy [1]: 50–70%
AUC0-∞ ([2]; frontal cortex, CRS + ZnD mice): 65.97 µg·min/g
t0.5λz ([2]; frontal cortex, CRS + ZnD mice): 32.31 min
tmax ([2]; frontal cortex, CRS + ZnD mice): 10 min
AUC0-∞ ([2]; frontal cortex, CRS mice): 106.58 µg·min/g
t0.5λz ([2]; frontal cortex, CRS mice): 34.92 min
tmax ([2]; frontal cortex, CRS mice): 10 min
AUC0-∞ ([2]; frontal cortex, Control mice): 97.81 µg·min/g
t0.5λz ([2]; frontal cortex, Control mice): 30.49 min
AUC0-∞ ([2]; hippocampus, CRS + ZnD mice): 58.49 µg·min/g
t0.5λz ([2]; hippocampus, CRS + ZnD mice): 42.69 min
tmax ([2]; hippocampus, CRS + ZnD mice): 10 min
AUC0-∞ ([2]; hippocampus, CRS mice): 96.13 µg·min/g
t0.5λz ([2]; hippocampus, CRS mice): 39.68 min
tmax ([2]; hippocampus, CRS mice): 10 min
AUC0-∞ ([2]; hippocampus, Control mice): 80.90 µg·min/g
t0.5λz ([2]; hippocampus, Control mice): 37.36 min
Kp ([2]; brain structure (not specified) / serum, CRS + ZnD animals, read-out: tissue-to-serum AUC ratio for the parent drug): 1.3
Kp ([2]; brain structure (not specified) / serum, CRS + ZnD animals, read-out: tissue-to-serum Cmax ratio for the parent drug): 1
Cmax [2, 6]: 2650 ng/g
MRT [2, 6]: 28.8 min
k el [2, 6]: 0.000367 s⁻¹
Cmax [2, 7]: 3030 ng/g
MRT [2, 7]: 28.4 min
k el [2, 7]: 0.000333 s⁻¹
Cmax [2, 8]: 3460 ng/g
MRT [2, 8]: 30.1 min
k el [2, 8]: 0.000383 s⁻¹
Kp ([2]; hippocampus and frontal cortex / serum, control and stress (CRS) groups, Hp and FC, read-out: tissue-to-serum Cmax and AUC ratios for the parent drug): 2.45 to 2.84
Cmax [2, 9]: 2310 ng/g
MRT [2, 9]: 31.3 min
k el [2, 9]: 0.000267 s⁻¹
Cmax [2, 10]: 3180 ng/g
MRT [2, 10]: 28.5 min
k el [2, 10]: 0.000283 s⁻¹
Cmax [2, 11]: 2990 ng/g
MRT [2, 11]: 30.4 min
k el [2, 11]: 0.000317 s⁻¹
CL/F ([2]; serum, serum, CRS + ZnD mice): 220 mL/min/kg
Cmax ([2]; serum, serum, CRS + ZnD mice): 2150 ng/mL
MRT ([2]; serum, serum, CRS + ZnD mice): 22 min
Vd/F ([2]; serum, serum, CRS + ZnD mice): 11.6 L/kg
k el ([2]; serum, serum, CRS + ZnD mice): 0.000317 s⁻¹
Cmax ([2]; serum, serum, CRS mice): 1120 ng/mL
MRT ([2]; serum, serum, CRS mice): 29.8 min
Vd/F ([2]; serum, serum, CRS mice): 14.6 L/kg
k el ([2]; serum, serum, CRS mice): 0.000317 s⁻¹
Cmax ([2]; serum, serum, Control mice): 1130 ng/mL
MRT ([2]; serum, serum, Control mice): 34.2 min
Vd/F ([2]; serum, serum, Control mice): 16 L/kg
k el ([2]; serum, serum, Control mice): 0.000317 s⁻¹
CL/F ([2]; serum, CRS mice): 270 mL/min/kg
CL/F ([2]; serum, Control mice): 300 mL/min/kg
t0.5λz ([2]; serum, CRS + ZnD mice): 35.93 min
tmax ([2]; serum, CRS + ZnD mice): 10 min
t0.5λz ([2]; serum, CRS mice): 37.06 min
tmax ([2]; serum, CRS mice): 10 min
t0.5λz ([2]; serum, Control mice): 36.70 min
Zn levels in the Hp and FC [3]: reduced the Zn levels
immobility time in the TST [4]: ineffective
sucrose preference in the SPT ([5]; CRS + ZnD mice): failed to restore sucrose preference
sucrose preference in the SPT ([5]; CRS mice): restored the sucrose preference
